# Data from PMC6422167 (ChemMedChem, 2018).
# Where two headings read alike, the source gives them in different places.
# Columns and labels:
# σ1 receptor [1] = molecular target: T1, σ1 receptor (Cavia porcellus, UniProt Q60492); assay: σ1 receptor binding affinity, competition against; design: species or system guinea pig; conditions: for Selectivity ratio VAChT/ σ1: ratio of Ki values, Table 2; for Ki: read-out: Ki σ1, homogenate of guinea pig brain, tested as oxalate, mean ± SD
# σ2 receptor [2] = molecular target: T2, σ2 receptor (Rattus norvegicus, UniProt Q5U3Y7); assay: σ2 receptor binding affinity, competition against [3H]DTG; conditions: for Selectivity ratio VAChT/ σ2: ratio of Ki values, Table 2; for Ki: read-out: Ki σ2, homogenate of rat liver, tested as oxalate, mean ± SD
# T2 sequence (Q5U3Y7 1-176): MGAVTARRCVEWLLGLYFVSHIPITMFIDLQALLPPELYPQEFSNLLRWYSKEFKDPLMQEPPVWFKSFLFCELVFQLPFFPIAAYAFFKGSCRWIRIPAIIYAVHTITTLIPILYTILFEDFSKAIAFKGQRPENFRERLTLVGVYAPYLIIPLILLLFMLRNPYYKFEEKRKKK
# human VAChT = molecular target: T3, human VAChT (Homo sapiens, UniProt Q16572); conditions: read-out: Ki VAChT; reference ligand; cited from earlier work
# T3 sequence (Q16572 1-532): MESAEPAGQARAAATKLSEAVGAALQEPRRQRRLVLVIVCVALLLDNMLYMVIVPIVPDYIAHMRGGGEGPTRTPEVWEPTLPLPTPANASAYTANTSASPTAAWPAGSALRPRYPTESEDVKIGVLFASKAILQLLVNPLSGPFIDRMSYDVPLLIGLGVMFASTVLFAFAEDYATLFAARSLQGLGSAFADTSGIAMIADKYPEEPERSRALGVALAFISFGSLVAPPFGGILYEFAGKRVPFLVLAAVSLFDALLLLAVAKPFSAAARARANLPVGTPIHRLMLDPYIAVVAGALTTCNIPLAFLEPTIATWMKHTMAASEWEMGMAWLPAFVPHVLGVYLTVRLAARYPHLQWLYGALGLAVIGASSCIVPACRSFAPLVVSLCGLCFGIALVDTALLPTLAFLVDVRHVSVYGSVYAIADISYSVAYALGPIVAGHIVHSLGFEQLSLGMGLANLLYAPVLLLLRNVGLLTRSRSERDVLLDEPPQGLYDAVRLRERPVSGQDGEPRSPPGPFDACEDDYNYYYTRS
# σ1 receptor [3] = molecular target: T1, σ1 receptor; conditions: read-out: Ki σ1, cited from earlier work
# σ2 receptor [4] = molecular target: T2, σ2 receptor; conditions: read-out: Ki σ2; reference σ1 ligand; cited from earlier work
# T1 sequence (Q60492 whole entry): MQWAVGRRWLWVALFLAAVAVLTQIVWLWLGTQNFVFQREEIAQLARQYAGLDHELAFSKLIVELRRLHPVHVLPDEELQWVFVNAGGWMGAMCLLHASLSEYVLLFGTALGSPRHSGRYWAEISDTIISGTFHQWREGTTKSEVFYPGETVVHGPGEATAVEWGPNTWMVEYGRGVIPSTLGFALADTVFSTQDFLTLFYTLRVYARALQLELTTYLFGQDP
Selectivity ratio VAChT/ σ1 (σ1 receptor [1]),Ki (σ1 receptor [1]),Selectivity ratio VAChT/ σ2 (σ2 receptor [2]),Ki (σ2 receptor [2]),Compound,Ki (human VAChT),Ki (σ1 receptor [3]; reference ligand),Ki (σ2 receptor [4]),Ki (σ1 receptor [3]; reference σ1 ligand)
3.1,16.5 ± 2.1 nM,> 185,> 1000 nM,"CS(=O)(=O)c1ccc(C(=O)C2CCN(C3Cc4ccccc4CC3O)CC2)cc1 (racemic) [(±)-7, (±)-(1-(3-Hydroxy-1,2,3,4-tetrahydronaphthalen-2-yl)piperidin-4-yl)(4-(methyl-sulfonyl)phenyl)methanone]",,,,
7.2,17.2 ± 4 nM,> 420,> 1000 nM,"CSc1ccc(C(=O)C2CCN(C3Cc4ccccc4CC3O)CC2)cc1 (racemic) [(±)-8, (±)-(1-(3-Hydroxy-1,2,3,4-tetrahydronaphthalen-2-yl)piperidin-4-yl)(4-(methylthio)phenyl)methanone]",,,,
7.0,,> 420,,"O=C(c1ccc(SCCF)cc1)C1CCN(C2Cc3ccccc3CC2O)CC1 (racemic) [(±)-14a, (±)-(4-((2-Fluoroethyl)thio)phenyl)(1-(3-hydroxy-1,2,3,4-tetrahydronaph-thalen-2-yl)piperidin-4-yl)methanone]",,,,
17.7,40.8 ± 4.1 nM,> 430,> 1000 nM,"O=C(c1ccc(SCCCF)cc1)C1CCN(C2Cc3ccccc3CC2O)CC1 (racemic) [(±)-14b, (±)-(4-((3-Fluoropropyl)thio)phenyl)(1-(3-hydroxy-1,2,3,4-tetrahydronaph-thalen-2-yl)piperidin-4-yl)methanone]",,,,
10.7,,,,O[C@@H]1Cc2cccc(OCCF)c2C[C@H]1N1CCC(c2ccccc2)CC1 [(-)-FEOBV],19.6 ± 1.1 nM,209 ± 94 nM,,
,,,,"O=C(Cc1ccccc1F)NC1CCC(Cc2ccccc2)CC1 (centres unmarked) [YUN-122, N-(4-benzylcyclohexyl)-2-(2-fluorophenyl)acetamide]",,,667 ± 98 nM,3.6 ± 1.1 nM

Compound,Selectivity ratio VAChT/ σ1 (σ1 receptor [1]),Ki (σ1 receptor [1]),Selectivity ratio VAChT/ σ2 (σ2 receptor [2]),Ki (σ2 receptor [2]),Ki (human VAChT),Ki (σ1 receptor [3]; reference ligand),Ki (σ2 receptor [4]),Ki (σ1 receptor [3]; reference σ1 ligand)
(-)-vesamicol [reference compound],,,,34.5 ± 2 nM,,,,
